Like-named read-outs stand apart in the source and are kept apart here.
Tests used:
[1] = Determination of partition coefficients (n-octanol/water, radiotracer method); type: physicochemical
Description: Chemical compounds that cross the blood brain barrier (BBB) should be neutral and lipophilic and also, have a low molecular weight. The partition coefficient (P) provides a measure of the compound lipophilicity and is closely related to drug distribution in the body, its absorption in tissues and its route of excretion (Meade et al. in Curr. Opin. Neurobiol., 2003, 13, 5, 597-602). One method used to determine this parameter is that of radiotracers which relates the radiotracers activity or number of counts in the octanol organic phase with that of the aqueous phase. In this invention the compounds labeling is carried out using the Iodogeno method (^131I).
Determination of Partition Coefficients: A solution of 9 (20 μL), prepared as described in example 10, was added to a mixture of 3 ml of n-octanol and 3 ml of distilled water. After stirring and leaving to stand the mixture, aliquots of 20 μL from each phase were taken to determine the radiometric distribution ratio by an activity meter (CRC 35R, Capintec Inc.). This procedure was repeated to the radiopharmaceutical of ^99mTc-ECD as reference, which is used for cerebral perfusion studies.

[2] = Biodistribution in rats after intravenous injection (gamma camera imaging); type: in vivo, male Wistar rats
Method: The arrow indicates the detection of the compound in the region of interest (maximum uptake at about 3 min.).
Animal Studies: A solution of 9 15 MBq ([…]), prepared as described above, was administered to male Wistar rats (160 g, n=3) through the lateral tail vein. Then, images were taken every 15 seconds, for 30 min. (120 images) with a gamma camera (Medis Nucline TH22, Hungary), with a peak centered at 360 keV and a window of ±25%. The image processing was performed on a processing station Segami (USA).

O=C(O)CCNC(=O)CCC(=O)Nc1cccc2ccccc12
melting point: 180.5 to 181.8 °C

O=C(O)CCC(=O)Nc1cccc2ccccc12 [Compound 2, 4-(1-naphthylamino)-4-oxobutanoic acid]
melting point: 167 to 169 °C

CCOC(=O)[C@H](C[S-])[N-]CCN[C@@H](C[S-])C(=O)OCC.[O-2].[Tc] [^99mTc-ECD, ^99mTc-ethylcysteinate diethyl ester, reference compound]
Partition coefficient [1]: 40.6 | logP [1]: 1.6

N1-(2-aminoethyl)-N4-(1-naphthyl) succinimide-^131I [Compound 9]
time of maximum uptake in the region of interest ([2]; 131I-labeled compound): about 3 min | excretion of the radioiodinated compound ([2]; after maximum uptake): slow excretion | Partition coefficient ([1]; n-octanol/distilled water, radiometric distribution ratio): 0.54 | logP ([1]; octanol/water): −0.27

Reference: US9764047B2, “Method for obtaining novel derivatives of naphthalene for the in vivo diagnosis of alzheimer's disease” (CENTRO DE NEUROCIENCIAS DE CUBA, priority 2009, dated 2017)
